Source: patent US12502393B2, “Dual mode of action soluble guanylate cyclase activators and phosphodiesterase inhibitors and uses thereof” (TOPADUR PHARMA AG, priority 2018, dated 2025)
Like-named read-outs stand apart in the source and are kept apart here.

How the values were obtained:
[1] = tested on: Human Pulmonary Artery Smooth Muscle Cells (hPASMC); assay: cGMP in human pulmonary artery smooth muscle cells (hPASMC); type: cell-based; conditions: 30 min incubation, FIG. 4
Procedure: Human Pulmonary Artery Smooth Muscle Cells (hPASMC) were purchased from Clonetics™ Lonza (Lonza, reference number CC-2581) and cultured in Clonetics™ smooth muscle growth medium (Clonetics™ SmGM™-2 with BulletKit™ growth factor supplements (Lonza, reference number CC-3182) at 37° C. in 5% CO2. Culture medium was replaced each 48 hours. Cells were grown in 75 cm^2 culture plates.
48 h before the experiments, cells were trypsinized (Trypsin kit One ReagentPack™ (CC-5034), Lonza) and plated in 96 well plates precoated with collagen I at 10000 cells per well. 24 h before the experiments culture medium was replaced by serum-reduced (0.5% FBS) medium.
Measurements of intracellular cGMP were performed using the Amersham cGMP EIA System (GE Healthcare, RPN226) following the instructions of the manufacturer. The assay has a sensitivity of 2 fmol cGMP per well. Briefly, incubations were terminated by adding Amersham's lysis buffer 1 and cells left for 10 min under agitation to ensure complete lysis. cGMP in samples was then acetylated using triethylamine and acetic anhydride and determined by a competitive ELISA. The ELISA is based on the competition between acetylated cGMP in cell culture lysates and a peroxidase-labelled cGMP conjugate for limited binding sites on a cGMP specific antiserum immobilized on pre-coated 96 well MTP. cGMP was determined based on a standard curve. […]

[2] = tested on: Human Trabecular Meshwork Cells; assay: Cellular cGMP assay in human trabecular meshwork cells; type: cell-based; conditions: 10 μM Riociguat; for Concentration (nM) for 3-fold or 2-fold* cGMP increase vs Baseline: 3-fold increase (values without asterisk); for Ratio Maximum cGMP increase vs Baseline: 5 mM GSH, incubation 2 h
[3] = tested on: Rat aortic smooth muscle cells; assay: Cellular cGMP assay in rat aortic smooth muscle cells; type: cell-based; conditions: 10 μM Riociguat; for Ratio Maximum cGMP increase vs Baseline: 5 mM GSH, incubation 2 h
Procedure: Examples (Test compounds) were characterized for their potency and efficacy to elevate cGMP in cellular systems such as human trabecular meshwork cells (Table 3), human platelets (Table 5) and rat aortic smooth muscle cells (Table 4).
Human trabecular meshwork cells (ABC Biopply AG, Solothurn, Switzerland) or rat aortic smooth muscle cells (Sigma Aldrich AG, Buchs, Switzerland) were plated in a 96 well plate precoated with collagen (Collagen Type I solution from rat tail, Sigma; diluted to 0.1 mg/ml) at 20.000 cells per well and grown in corresponding Trabecular Meshwork (ABC Supply AG) or Smooth Muscle (Sigma AG) Growth medium as provided by the manufacturers. After 18 h medium was exchanged and new medium added supplemented with 5 mM GSH. The next day culture medium was exchanged to DMEM with low glucose supplemented with 5 mM GSH. Cells were pre-incubated with 10 μM Riociguat (soluble guanylate cyclase stimulator; Lucerna-Chem AG, Luzern, Switzerland) for 15 min before test or reference compounds or vehicle was added to a final incubation volume of 100 μl per well. At the end of the incubation time (see below) the reaction was terminated by adding HCl (0.16M), IBMX (Isobutylmethylxanthin) (2 mM) in DMSO (2%) to the culture medium, final concentrations per well are given in brackets. Following a 20 sec on a plate shaker (200 rpm) the plate was immediately frozen at −80° C.
(§1) cGMP was determined by a commercially available ELISA kit (Direct cGMP ELISA kit, Enzo Life Sciences AG, Lauren, Switzerland) with a lower detection limit of 0.08 pmol/ml using the acetylation protocol following manufacturer's instructions. Results are given as the means from at least two independent experiments each in triplicate.
(§2) To study concentration-dependent effects on total cGMP test and reference compounds were investigated from 0.1 nM to 1 μM in half-logarithmic steps with an incubation time of 2 h. To examine the time course the incubation times were (min) 10, 30, 60, 90, 120 at 1 μM of test or reference compound.
(§3) Compounds were diluted from stock solutions in DMSO. The final concentration of DMSO in all wells including the vehicle controls was 0.2% for human trabecular meshwork and rat aortic smooth muscle cells and 0.3% for platelets.
(§4) From time course experiments, the time to half of the maximum cGMP increase with 1 μM of test compound has been extrapolated (t0.5max).

[4] = target: T1, recombinant human (rh) PDE5A (Homo sapiens, UniProt O76074); assay: Phosphodiesterase-5 activity assay (radiometric SPA); type: biochemical; conditions: rhPDE5A1, 0.5 μM cGMP, 20 min at 37° C.
T1 construct: GST; purchased SIGMA E9034

[5] = Human plasma protein binding; type: in vitro ADME; conditions: for fraction unbound: human
Procedure: An aliquot of 200 μL of human plasma containing test compound was spiked into donor well (red chamber) of the insert. 350 μL of PBS was spiked into receiver well (white chamber) of the insert.
The samples were matrix equilibrated with opposite matrix (25 μL of plasma/buffer sample was matched with 25 μL of blank buffer/plasma). Matrix matched samples were precipitated with 200 μL of acetonitrile containing internal standard. Samples were vortexed at 1000 rpm for 5 min and centrifuged at 4000 rpm for 10 min. Supernatant was separated, diluted 2 fold with water and analysed in LC-MS/MS. (Table 2).

Human Platelets = assay: Total cGMP in human platelets; type: cell-based; conditions: for Ratio Maximum cGMP increase vs Baseline: 1 μM riociguat and 100 nM BAY 190954, incubation 2 h; for Concentration (nM) for 3-fold cGMP or 2-fold* increase vs Baseline: 3-fold increase (values without asterisk), 1 μM riociguat, 100 nM BAY 190954
Procedure: Effects of test and reference compounds on total cGMP in human platelets were investigated as described by Dunkern and Hatzelmann (Cell Signal. 17: 331-9, 2005) with modifications. Briefly, buffy coats (acquired form SRK Blutspende Zurich) were 4-fold diluted in 150 mM sodium chloride solution containing 0.9% sodium citrate and centrifuged at 200 g for 10 min. The resulting platelet-rich plasma was supplemented with a 1/10 volume of ACD solution (85 mM sodium citrate, 111 mM D-glucose, 71 mM citric acid, pH 4.4) and apyrase (Sigma AG) to a final concentration of 2 U/ml. After another centrifugation (1400 g, 10 min) the cellular pellet was resuspended in Ca2+/Mg2+-free Hepes-Tyrode buffer (134 mM NaCl, 12 mM NaHCO3, 2.9 mM KCl, 0.36 mM NaH2PO4, 5 mM HEPES, 5 mM glucose, 0.5% (w/v) bovine serum albumin, pH 7.4) and platelets were counted.
Platelets were used at 9×10^7 cells in 100 μl per well and after adding test and reference compounds the incubation volume was 200 μl per well in Hepes-Tyrode. Experiments in platelets were done in presence of 1 μM riociguat and 100 nM BAY 190954 (PDE2 inhibitor) (Lucerna Chem AG) and test/reference compounds were added after a preincubation time of 15 min. At the end of the incubation time (see below) the reaction was terminated by adding 20 μl of 2N HCl per well. Following a 20 sec on a plate shaker (300 rpm) the plate was left for 15 min and then centrifuged at 1000×g for 5 min. Supernatants were stored at −80° C.
as §1, §2, §3, §4

[6] = read-out: % Unbound in human plasma

SMILES	efficacy in increasing cGMP level as compared to the reference inhibitor vardenafil [1]	Concentration (nM) for 3-fold or 2-fold* cGMP increase vs Baseline ([2]; HTMC)	Ratio Maximum cGMP increase vs Baseline ([2]; HTMC)	Concentration (nM) for 3-fold cGMP increase vs Baseline [3]	Ratio Maximum cGMP increase vs Baseline [3]	IC50 [4]	fraction unbound ([5]; read-out: % Bound in human plasma (converted))	fraction unbound [5, 6]	Ratio Maximum cGMP increase vs Baseline (Human Platelets)	Concentration (nM) for 3-fold cGMP or 2-fold* increase vs Baseline (Human Platelets)	effect to elevate cGMP in HTMC compared with organic nitrate ester ITN and PDE5 inhibitors sildenafil or vardenafil ([2]; HTMC, FIG. 3A and FIG. 3B)	concentration equipotent to ITN & Vardenafil to elevate cGMP in HTMC ([2]; equipotent to 1 μM ITN & 1 μM Vardenafil)	concentration equipotent to ITN & Vardenafil to elevate cGMP in HTMC ([2]; equipotent to 10 μM ITN & 1 μM Vardenafil)	concentration equipotent to ITN & Sildenafil to elevate cGMP in HTMC ([2]; first value of pair 10.6 nM/50.8 nM, printed against 10 μM ITN & 1 μM Sildenafil)	concentration equipotent to ITN & Sildenafil to elevate cGMP in HTMC ([2]; second value of pair 10.6 nM/50.8 nM, equipotent to 10 μM ITN & 1 μM Sildenafil)	% Bound in human plasma [5]
CCCc1nn(C)c2c(=O)[nH]c(-c3cc(S(=O)(=O)N4CCC([C@@H](O)CO[N+](=O)[O-])CC4)ccc3OCC)nc12 [Compound 1c, (R)-2-(1-((4-ethoxy-3-(1-methyl-7-oxo-3-propyl-6,7-dihydro-1H-pyrazolo[4,3-d]pyrimidin-5-yl)phenyl)sulfonyl)piperidin-4-yl)-2-hydroxyethyl nitrate]	significantly higher efficacy	25.1 nM	61.9	1300 nM	3.47	1000 pM	0.0118	0.0118	26.1	33.3 nM						
CCCc1nc(C)c2c(=O)[nH]c(-c3cc(S(=O)(=O)N4CCC([C@H](CO[N+](=O)[O-])O[N+](=O)[O-])CC4)ccc3OCC)nn12 [Compound 2a, (R)-1-(1-((4-ethoxy-3-(5-methyl-4-oxo-7-propyl-3,4-dihydroimidazo[5,1-f][1,2,4]triazin-2-yl)phenyl)sulfonyl)piperidin-4-yl)ethane-1,2-diyl dinitrate]	significantly higher efficacy	4.2 nM	101.7	293 nM	10.58	420 pM		0.002	152.5	3.3 nM	over-additive effects	2.6 nM	12.4 nM	10.6 nM	50.8 nM	99.80%
CCCc1nc(C)c2c(=O)[nH]c(-c3cc(S(=O)(=O)N4CCC([C@@H](O)CO[N+](=O)[O-])CC4)ccc3OCC)nn12 [Compound 2c, (R)-2-(1-((4-ethoxy-3-(5-methyl-4-oxo-7-propyl-3,4-dihydroimidazo[5,1-f][1,2,4]triazin-2-yl)phenyl)sulfonyl)piperidin-4-yl)-2-hydroxyethyl nitrate]		10.1 nM	52.1	729 nM	5.93	140 pM			105.4	4.3 nM						
CCCc1nn(C)c2c(=O)[nH]c(-c3cc(S(=O)(=O)N4CCC([C@@H](O)CO)CC4)ccc3OCC)nc12 [Compound 4, (R)-5-(5-((4-(1,2-dihydroxyethyl)piperidin-1-yl)sulfonyl)-2-ethoxyphenyl)-1-methyl-3-propyl-1,6-dihydro-7H-pyrazolo[4,3-d]pyrimidin-7-one]		99.8 nM	12.4	>10000 nM	1.04	1500 pM			6.4	92.6 nM						
CCCc1nc(C)c2c(=O)[nH]c(-c3cc(S(=O)(=O)N4CCC([C@@H](O)CO)CC4)ccc3OCC)nn12 [Compound 25, (R)-2-(5-((4-(1,2-dihydroxyethyl)piperidin-1-yl)sulfonyl)-2-ethoxyphenyl)-5-methyl-7-propyl imidazo[5,1-f][1,2,4]triazin-4(3H)-one]		58.5 nM	22.3	>10000 nM	0.89	80 pM			23.3	5.9 nM						
